Key:
[1] = Stability testing: storage in a closed container under air at 80° C., odevixibat content by HPLC; type: physicochemical; conditions: for Odevixibat content (%): closed container under air at 80° C., HPLC
Description: Analyses were performed on an Agilent, Series 1100, equipped with an Agilent 1260 Infinity degasser. Column: Waters XSelcet CHS C18 (150×3 mm, 3.5 μm); Mobile phase A: 0.1% formic acid in water, mobile phase B: 0.1% formic acid in acetonitrile; Gradient 45% to 90% B; flow rate 0.425 mL/min; Acquisition time 35 minutes; Run time 42 minutes; Wave length: 283 nm; Column temperature 20° C. The Chromeleon Version 6.8 software was used.
Samples of amorphous odevixibat (purity ˜91%) and of crystal modification 1 of odevixibat (purity>99%; crystallinity 100%) were stored in a closed container under air at 80° C. The amount of odevixibat in the samples was determined by HPLC at the beginning of the experiment, and was again determined after 1, 2 and 4 weeks.

[2] = Dynamic vapour sorption (DVS) water uptake of crystal modification 1; type: physicochemical
Description: DVS measurements were performed with an SPS11-100n “Sorptions Prüfsystem” from ProUmid (formerly “Projekt Messtechnik”), August-Nagel-Str. 23, 89079 Ulm (Germany). About 20 mg of sample was used. Humidity change rates of 5% per hour were used. The sample was placed on an aluminum or platinum holder on top of a microbalance and allowed to equilibrate at 0% RH before starting the pre-defined humidity program: • (1) 5 h at 0% RH • (2) 0→95% RH (5%/h); 5 h at 95% RH • (3) 95→0% RH (5%/h); 5 h at 0% RH • (4) 0→95% RH (5%/h); 5 h at 95% RH • (5) 95→0% RH (5%/h); 5 h at 0% RH High-Performance Liquid Chromatography (HPLC) The water uptake of crystal modification 1 was measured using dynamic vapour sorption (DVS). […] After drying the sample at 0% RH and increasing the relative humidity, most of the water was taken back up to about 25% RH. This corresponds to a water content of about 3.5% (w/w). An additional 1.5% (w/w) of water was then taken up when the humidity was increased up to 95% RH. […] Crystal modification 1 therefore seems to require about 3.5% (w/w) of water, which corresponds to a sesquihydrate.

[3] = 0 weeks (beginning of the experiment)
[4] = after 4 weeks of storage at 80° C. under air

CCCCC1(CCCC)CN(c2ccccc2)c2cc(SC)c(OCC(=O)N[C@@H](C(=O)N[C@@H](CC)C(=O)O)c3ccc(O)cc3)cc2S(=O)(=O)N1 [Amorphous odevixibat, 1,1-dioxo-3,3-dibutyl-5-phenyl-7-methylthio-8-(N—{(R)-α-[N—((S)-1-carboxypropyl)carbamoyl]-4-hydroxybenzyl}carbamoylmethoxy)-2,3,4,5-tetrahydro-1,2,5-benzothiadiazepine, reference compound]
Odevixibat content (%) [1, 3]: 91.1% | Odevixibat content (%) ([1]; 1 week): 90.9% | Odevixibat content (%) ([1]; 2 weeks): 91.04% | Odevixibat content (%) ([1]; 4 weeks): 90.8% | decomposition [1, 4]: 0.3%

CCCCC1(CCCC)CN(c2ccccc2)c2cc(SC)c(OCC(=O)N[C@@H](C(=O)N[C@@H](CC)C(=O)O)c3ccc(O)cc3)cc2S(=O)(=O)N1 [crystal modification 1, 1,1-dioxo-3,3-dibutyl-5-phenyl-7-methylthio-8-(N—{(R)-α-[N—((S)-1-carboxypropyl)carbamoyl]-4-hydroxybenzyl}carbamoylmethoxy)-2,3,4,5-tetrahydro-1,2,5-benzothiadiazepine]
hygroscopicity ([2]; DVS, conclusion in words): slightly hygroscopic | water content ([2]; after drying at 0% RH, water taken back up to about 25% RH): about 3.5 % (w/w) | maximum water uptake ([2]; at 95% RH, reversible): about 5.0 % (w/w) | water content ([2]; at about 30% relative humidity, based on the total crystal weight): about 3.5 % (w/w) | additional water uptake ([2]; humidity increased up to 95% RH (range 30-95% RH)): 1.5 % (w/w) | Odevixibat content (%) [1, 3]: 99.13% | Odevixibat content (%) ([1]; 1 week): 99.15% | Odevixibat content (%) ([1]; 2 weeks): 99.18% | Odevixibat content (%) ([1]; 4 weeks): 99.24% | change of purity [1, 4]: had not changed
